The values below come from patent publication US6197495A, “Methods using the staphylococcus aureus glycyl tRNA synthetase crystalline structure” (SmithKline Beecham Corporation, priority 1998, dated 2001).

Experiment [1] deals with T1, Staphylococcus aureus glycyl tRNA synthetase (GRS), SEQ ID NO:1 (Staphylococcus aureus, UniProt P99129).
T1 construct: purified enzyme or crude lysate; homodimer
T1 sequence (P99129 1-463): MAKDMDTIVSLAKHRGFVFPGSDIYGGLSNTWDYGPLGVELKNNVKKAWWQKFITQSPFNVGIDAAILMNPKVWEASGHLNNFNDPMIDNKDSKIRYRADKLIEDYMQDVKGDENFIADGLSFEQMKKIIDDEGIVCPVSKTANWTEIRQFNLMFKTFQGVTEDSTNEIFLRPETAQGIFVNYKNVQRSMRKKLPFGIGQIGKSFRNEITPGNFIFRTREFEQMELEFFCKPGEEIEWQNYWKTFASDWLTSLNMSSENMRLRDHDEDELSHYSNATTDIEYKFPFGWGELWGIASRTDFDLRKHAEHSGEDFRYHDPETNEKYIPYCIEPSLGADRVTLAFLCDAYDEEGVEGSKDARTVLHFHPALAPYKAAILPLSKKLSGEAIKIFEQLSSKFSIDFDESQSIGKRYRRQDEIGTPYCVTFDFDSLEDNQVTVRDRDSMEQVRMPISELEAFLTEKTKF
The experiment is described as follows: Stopped-flow tryptophan fluorescence measurement of inhibitor binding to GRS. From the text: (§1) Glycylsulfmoyladenosine is an analogue of the Gly-AMP reaction intermediate and inhibits GRS catalytic activity as measured by any of the techniques described in the examples below. Estimates of the potency of inhibition are obtained by performing enzyme assays in the presence of a range of inhibitor concentrations, and fitting the effect of inhibitor concentration on enzyme velocity to a four parameter logistic function that allows calculation of an IC50 (the inhibitor concentration at which GRS activity is reduced by half). […] Binding of glycylsulfamoyladenosine to GRS can also be measured directly using stopped-flow fluorescence techniques because enzyme:inhibitor binary complex has around 5% higher tryptophan fluorescence than the free enzyme. Experiments of this type yield the following elementary rate constants for inhibitor binding; kon =1.1×10^6 s^-1.M^-1, koff =2.9s ^-1 .
(1) Effects of ligand binding upon enzyme intrinsic fluorescence (e.g. of tryptophan). Binding of either natural ligands or inhibitors may result in enzyme conformational changes which alter enzyme fluorescence. Using stopped-flow fluorescence equipment, this can be used to define the microscopic rate constants that describe binding. Alternatively, steady-state fluorescence titration methods can yield the overall dissociation constant for binding in the same way that these are accessed through enzyme inhibition experiments.

Experiment [2] concerns the target T1, Staphylococcus aureus glycyl tRNA synthetase (GRS), SEQ ID NO:1. Kind of experiment: Aminoacylation assay of GRS catalytic activity in the presence of a range of inhibitor concentrations. The format is biochemical. The settings on record: S. aureus GRS; four parameter logistic fit; tRNA acylation with radiolabelled glycine, 37° C.; read-out: IC50 (the inhibitor concentration at which GRS activity is reduced by half).
Description: as §1
Assays were performed either using purified S. aureus GRS overexpressed in E. coli, or using crude cell lysate from E. coli overexpressing GRS. The latter contained around 10% of total protein as GRS. Enzyme was stored at -70° C. in 50 mM Tris-HCl buffer (pH 7.8), 10 mM MgCl2 and 10 mM B-mercaptoethanol after flash freezing in liquid N2. […]
The assay procedure was as follows. […] The filters were dried at 70° C. for 1 hour and the levels of radioactivity measured by scintillation counting (Packard Topcount). […]

As to `NCC(=O)NS(=O)(=O)OC[C@H]1O[C@@H](n2cnc3c(N)ncnc32)[C@H](O)[C@@H]1O` [glycylsulfamoyladenosine, 5'-O-Glycylsulfamoyladenosine], in experiment [1], the koff (in general, the rate constant with which the complex falls apart) was determined as 2.9 s⁻¹ and the kon (usually the rate constant with which the complex forms) was found to be 1.1e+06 M⁻¹ s⁻¹. Further, the Kd (commonly the concentration at which binding is half-saturated) in experiment [1] (estimate from the ratio of koff and kon) is 2600 nM. In addition, the IC50 in experiment [2] is approximately 2400 nM.
